From PubChem BioAssay (NCI)
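Interpolation was linear, between the two tested concentrations surrounding the appropriate level; five concentrations were tested over 48 hours in 96-well plates. Here, GI50 denotes the concentration required for 50% inhibition of growth. At the TGI there is no net growth.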

Key:
Assay in all cases: growth of human tumour cells (NCI), 48 h
M14 melanoma = system: M14 melanoma
UACC-62 melanoma = system: UACC-62 melanoma
UO-31 renal = system: UO-31 renal
NCI-H23 lung = system: NCI-H23 lung
SNB-19 CNS = system: SNB-19 CNS
SK-MEL-28 melanoma = system: SK-MEL-28 melanoma
CCRF-CEM leukemia = system: CCRF-CEM leukemia
U251 CNS = system: U251 CNS
NCI-H226 lung = system: NCI-H226 lung
OVCAR-4 ovarian = system: OVCAR-4 ovarian

| SMILES | GI50 (M14 melanoma) | TGI (M14 melanoma) | GI50 (UACC-62 melanoma) | TGI (UACC-62 melanoma) | GI50 (UO-31 renal) | TGI (UO-31 renal) | GI50 (NCI-H23 lung) | TGI (NCI-H23 lung) | GI50 (SNB-19 CNS) | TGI (SNB-19 CNS) | GI50 (SK-MEL-28 melanoma) | TGI (SK-MEL-28 melanoma) | GI50 (CCRF-CEM leukemia) | TGI (CCRF-CEM leukemia) | GI50 (U251 CNS) | TGI (U251 CNS) | GI50 (NCI-H226 lung) | TGI (NCI-H226 lung) | GI50 (OVCAR-4 ovarian) | TGI (OVCAR-4 ovarian) |
| --- | --- | --- | --- | --- | --- | --- | --- | --- | --- | --- | --- | --- | --- | --- | --- | --- | --- | --- | --- | --- |
| CN(Cc1ccccc1)c1ncnc2ccc(Br)cc12 | 12.9 µM | 25.7 µM | 13.1 µM | 27.1 µM | 13.3 µM | 49.5 µM | 11.3 µM | 28.9 µM | 16.8 µM | 41.9 µM | 15.6 µM | 36.1 µM | 13.6 µM | 38.7 µM | 11.9 µM | 24.6 µM | 13.8 µM | 39.1 µM | 12.8 µM | 36.8 µM |
| COc1ccc(C(=C(C#N)C#N)c2ccc(OC)cc2)cc1 | – | > 100 µM | – | > 100 µM | – | > 100 µM | – | > 100 µM | – | > 100 µM | – | > 100 µM | – | > 100 µM | – | > 100 µM | – | > 100 µM | – | > 100 µM |
| COc1ccc2c(c1)[n+]([O-])c(/C(C)=N/NC(N)=S)c(C)[n+]2[O-] | – | > 100 µM | – | > 100 µM | – | > 100 µM | – | > 100 µM | – | > 100 µM | – | > 100 µM | – | > 100 µM | – | > 100 µM | – | > 100 µM | – | > 100 µM |
| Nc1c(C(=O)c2cccc(C(O)(CO)CO)c2)cnn1-c1ccc(F)cc1 | > 25 µM | > 25 µM | > 25 µM | > 25 µM | > 25 µM | > 25 µM | > 25 µM | > 25 µM | > 25 µM | > 25 µM | > 25 µM | > 25 µM | > 25 µM | > 25 µM | > 25 µM | > 25 µM | > 25 µM | > 25 µM | > 25 µM | > 25 µM |
| CN1CCN2c3ccccc3CC(C#N)(C#N)C2C1 (stereo not drawn) | – | > 100 µM | – | > 100 µM | – | > 100 µM | – | > 100 µM | – | > 100 µM | – | > 100 µM | – | > 100 µM | – | > 100 µM | – | > 100 µM | – | > 100 µM |
| O=C1c2cccc3c([N+](=O)[O-])ccc(c23)C(=O)N1CCCCl | 5.85 µM | > 10 µM | 4.48 µM | > 10 µM | > 10 µM | > 10 µM | 5.07 µM | > 10 µM | > 10 µM | > 10 µM | 3.84 µM | > 10 µM | 0.489 µM | 3.28 µM | > 10 µM | > 10 µM | 2.83 µM | > 10 µM | 4.77 µM | > 10 µM |
| O=S1(=O)OCc2ccccc21 | – | > 100 µM | – | > 100 µM | – | > 100 µM | – | > 100 µM | – | > 100 µM | – | > 100 µM | – | > 100 µM | – | > 100 µM | – | > 100 µM | – | > 100 µM |
| O=C1C[C@@H]2[C@@H](C=CC23CC3)N1O | – | > 100 µM | – | > 100 µM | – | > 100 µM | – | > 100 µM | – | > 100 µM | – | > 100 µM | – | > 100 µM | – | > 100 µM | – | > 100 µM | – | > 100 µM |
| OCCNC(=S)Nc1ccc(-c2nc(N3C[C@H]4CC[C@@H](C3)O4)c3cccn3n2)cc1 | 0.0654 µM | 5.93 µM | 0.018 µM | 0.194 µM | < 0.0152 µM | 0.194 µM | 0.0798 µM | 16.7 µM | 0.189 µM | 13.2 µM | 0.028 µM | 0.499 µM | 0.153 µM | > 40.6 µM | 0.114 µM | 11.6 µM | 0.0305 µM | 0.714 µM | 0.0389 µM | 0.63 µM |
| COc1ccc(C2CC(c3ccc4ccccc4c3)=NN2/C=C2\SC(=S)N(NC(=O)Cc3ccccc3Nc3c(Cl)cccc3Cl)C2=O)cc1 (stereo not drawn) | 0.4 µM | 5.4 µM | 0.606 µM | > 43.8 µM | 0.354 µM | – | 0.793 µM | > 46.8 µM | 0.636 µM | > 46.8 µM | 4.45 µM | > 50 µM | 0.239 µM | > 100 µM | 0.402 µM | > 36.7 µM | 1.14 µM | > 32.3 µM | 1.2 µM | > 48 µM |
| CS(=O)(=O)c1nccc(-c2c(-c3cccc(OCc4ccccc4)c3)nc3sccn23)n1 | 13.9 µM | > 100 µM | 13.8 µM | > 100 µM | 21.2 µM | 78 µM | 12.8 µM | > 100 µM | > 43.8 µM | > 100 µM | 12.2 µM | > 100 µM | > 30.1 µM | > 100 µM | 19.6 µM | > 100 µM | 12.1 µM | > 100 µM | 9.97 µM | > 100 µM |
| COc1cc(/C=C/C(=O)c2ccc(F)cc2)ccc1OCCCCOc1cc2c(cc1OC)C(=O)N1CCCC1C=N2 (stereo not drawn) | 2.11 µM | 4.08 µM | 0.777 µM | 11.4 µM | 0.891 µM | – | 1.47 µM | > 23.5 µM | 1.04 µM | > 19.9 µM | 15.3 µM | > 100 µM | 0.285 µM | 1.88 µM | 0.704 µM | 7.85 µM | 0.683 µM | 1.7 µM | 2.99 µM | > 23.9 µM |
| NNC(=O)C(O)C(O)C(O)CO (stereo not drawn) | – | > 100 µM | – | > 100 µM | – | > 100 µM | – | > 100 µM | – | > 100 µM | – | > 100 µM | – | > 100 µM | – | > 100 µM | – | > 100 µM | – | > 100 µM |
| C/C(=N\N)C(CN1CCCCC1)C(c1ccccc1)c1c(O)c2ccccc2oc1=O (stereo not drawn) | – | > 100 µM | – | > 100 µM | – | > 100 µM | – | > 100 µM | – | > 100 µM | – | > 100 µM | – | > 100 µM | – | > 100 µM | – | > 100 µM | – | > 100 µM |
| C=C(c1ccccc1)[C@@]1(O)CCCC[C@H]1NC(c1ccccc1)c1ccccc1 | – | 27.6 µM | – | 27.8 µM | – | 27.6 µM | – | 28.7 µM | – | 36.7 µM | – | 30.2 µM | – | 18.7 µM | – | 24.5 µM | – | 22.6 µM | – | 34.5 µM |
| CO[C@H](C(=O)O[C@H]1C(=O)N2CCC3CCC1C32C)c1ccccc1 (stereo partly drawn) | – | > 100 µM | – | > 100 µM | – | > 100 µM | – | > 100 µM | – | > 100 µM | – | > 100 µM | – | > 100 µM | – | > 100 µM | – | > 100 µM | – | > 100 µM |
| Cc1cc(N(CCC#N)CCC#N)ccc1/C=C(\NC(=O)/C=C/c1ccccc1)NC(=O)Nc1ccccc1C | – | > 100 µM | – | > 100 µM | – | > 100 µM | – | > 100 µM | – | > 100 µM | – | > 100 µM | – | > 100 µM | – | 42.7 µM | – | > 100 µM | – | > 100 µM |
| COc1cccc(-c2cc(C(=O)Nc3ccc(Cl)cc3)nc(N)n2)c1 | – | > 100 µM | – | > 100 µM | – | > 100 µM | – | > 100 µM | – | > 100 µM | – | > 100 µM | – | > 100 µM | – | > 100 µM | – | > 100 µM | – | > 100 µM |
| CC/C=C\C[C@H](O)C/C=C1/C(=O)C=C[C@@H]1C/C=C\CCCC(=O)OCCS(=O)(=O)c1ccccc1 | 3.67 µM | 13.7 µM | 2.48 µM | 6.29 µM | 2.37 µM | 6.31 µM | 2.82 µM | 10.6 µM | 5.06 µM | 19.4 µM | 2.72 µM | 8.02 µM | 2.44 µM | 9.26 µM | 3.35 µM | 12.5 µM | 2.69 µM | 6.39 µM | 4.05 µM | 16.9 µM |
| C=C(C)[C@@H]1CC[C@]2(C(=O)N3CCN(C)CC3)CC[C@]3(C)[C@H](CC[C@@H]4[C@@]5(C)C/C(=C/c6ccncc6)[C@H](O)C(C)(C)[C@@H]5CC[C@]43C)[C@@H]12 | 3.44 µM | 12.6 µM | 10.2 µM | 27.9 µM | 5.37 µM | 21 µM | 8.73 µM | > 100 µM | 8.68 µM | > 100 µM | 7.46 µM | 22.2 µM | 3.3 µM | 24.5 µM | 5.64 µM | 19.6 µM | 7.01 µM | 28.9 µM | 7.08 µM | > 100 µM |
| CC12CCC(=O)N1c1cc([N+](=O)[O-])ccc1N2 (stereo not drawn) | – | > 100 µM | – | > 100 µM | – | > 100 µM | – | > 100 µM | – | > 100 µM | – | > 100 µM | – | > 100 µM | – | > 100 µM | – | > 100 µM | – | > 100 µM |
